Measurements: PubChem BioAssay AID743087 (Broad Institute, 2013)
Calls of active or inactive are those of the source.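 How the source made its calls: active means IC50 below 100 nM in HeLa cells, the median call across repeat tests; inactive means IC50 above 100 nM in HeLa cells.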

Assays:
[1] = tested on: HeLa viability, CellTiter-Glo luminescence, 48 h; assay: cytotoxicity in TP53-mutant HeLa cells – cell-based, CellTiter-Glo luminescence, dry powder, dose response (AID 743087)
[2] = as above; conditions: HeLa viability, CellTiter-Glo luminescence, 48 h

Row | SMILES | IC50 [1] | outcome [2]
1 | CC1(C)C(=O)NN=C1c1ccc([N+](=O)[O-])cc1 | > 1000 nM (inactive) | 
2 | C[C@@H]1CC(=O)NN=C1c1ccc(C2=CCCCC2)cc1 | 2.22 nM | 
3 | C[C@@H]1CC(=O)NN=C1c1ccc(N2CCCC2=O)cc1 | 133 nM (inactive) | 
4 | CC1CC(=O)NN=C1c1ccc(N2CCN(C(=O)Cc3ccc(Cl)cc3Cl)CC2)cc1 (configuration not stated) | > 1000 nM (inactive) | 
5 | Cc1nc2ccc(C3=NNC(=O)C[C@H]3C)cc2[nH]1 | > 1000 nM (inactive) | 
6 | CCN(CC)c1ccc(C(=O)Nc2ccccc2)cc1[N+](=O)[O-] | > 1000 nM (inactive) | 
7 | CCN(CC)c1ccc(C2=NNC(=O)C[C@H]2C)cc1[N+](=O)[O-] | > 1000 nM (inactive) | 
8 | C[C@@H]1CC(=O)NN=C1c1ccc(I)cc1 | 7.02 nM | 
9 | C[C@@H]1CC(=O)NN=C1c1ccc(N)c(Br)c1 | > 1000 nM (inactive) | 
10 | Cc1ccc(CCC(=O)N2CCN(c3ccc(C4=NNC(=O)CC4C)cc3)CC2)cc1 (configuration not stated) | > 1000 nM (inactive) | 
11 | CCN(CC)c1ccc(C2=NNC(=O)C2(C)C)cc1 | > 1000 nM (inactive) | 
12 | CCCc1ccc(C2=NNC(=O)C[C@H]2C)cc1 | 16.2 nM | 
13 | CCN(CC)c1ccc(-c2n[nH]c(=O)cc2C)cc1 | > 1000 nM (inactive) | 
14 | CC1CC(=O)NN=C1c1ccc(N2CCOCC2)c(F)c1 (configuration not stated) | 2.73 nM | 
15 | CC(=O)Nc1ccc(-c2n[nH]c(=O)cc2C)cc1 | > 1000 nM (inactive) | 
16 | C[C@@H]1CC(=O)NN=C1c1ccc(N2CCN(C)CC2)cc1 | 297 nM (inactive) | 
17 | CC(=O)Nc1ccc(C2=NNC(=O)C[C@H]2C)cc1[N+](=O)[O-] | 4.78 nM | 
18 | CC(=O)N1CCN(c2ccc(C3=NNC(=O)CC3C)cc2F)CC1 (configuration not stated) | > 1000 nM (inactive) | 
19 | C[C@@H]1CC(=O)NN=C1c1ccc(N)c([N+](=O)[O-])c1 | > 1000 nM (inactive) | 
20 | CCN(CC)c1ccc(C2=NNC(=O)CC2C)cc1 (configuration not stated) | 8.54 nM | 
21 | CC(=O)Nc1ccc(C2=NNC(=O)C[C@H]2C)cc1C(C)=O | 126 nM (inactive) | 

Row | SMILES | IC50 [1] | outcome [2]
22 | C[C@@H]1CC(=O)NN=C1c1ccc(F)cc1 (racemic) | 360 nM (inactive) | 
23 | C[C@@H]1CC(=O)NN=C1c1ccc(N2CCOCC2)cc1 (racemic) | 35.1 nM | 
24 | C#Cc1cc(C2=NNC(=O)C[C@H]2C)ccc1NC(C)=O | 64.6 nM | 
25 | C/C=C/c1ccc(C2=NNC(=O)C[C@H]2C)cc1 | 8.73 nM | 
26 | C[C@@H]1CC(=O)NN=C1c1ccc(N2CCOCC2)cc1 | 13 nM | 
27 | C[C@@H]1CC(=O)NN=C1c1ccc(N2CCCCC2)cc1 | 3.83 nM | 
28 | C[C@@H]1CC(=O)NN=C1c1ccc(F)c(F)c1 | 22 nM | 
29 | C[C@H]1CC(=O)NN=C1c1ccc(N2CCOCC2)c(F)c1 | > 1000 nM (inactive) | 
30 | C[C@@H]1CC(=O)NN=C1c1ccc(N2CCCCS2(=O)=O)cc1 | 478 nM (inactive) | 
31 | CC1(C)C(=O)NN=C1c1ccc(Cl)cc1 | > 1000 nM (inactive) | 
32 | C[C@H]1CC(=O)NN=C1c1ccc(F)c(F)c1 | > 1000 nM (inactive) | 
33 | C[C@@H]1CC(=O)NN=C1c1ccccc1 | 428 nM (inactive) | 
34 | CCN(CC)c1ccc(C2=NNC(=O)CC2C)cc1NC(C)=O (configuration not stated) | > 1000 nM (inactive) | 
35 | CC1C(=O)NN=C1c1ccc([N+](=O)[O-])cc1 (configuration not stated) | > 1000 nM (inactive) | 
36 | CC(=O)Nc1ccc(C2=NNC(=O)C[C@H]2C)cc1 | 4.78 nM | 
37 | C[C@@H]1CC(=O)NN=C1c1ccc(N2CCCOC2=O)cc1 | > 1000 nM (inactive) | 
38 | CCNc1ccc(C2=NNC(=O)C[C@H]2C)cc1[N+](=O)[O-] | 1.08 nM | 
39 | C[C@@H]1CC(=O)NN=C1c1ccc(C2CCCCC2)cc1 | 7.59 nM | 
40 | CCNc1ccc(C2=NNC(=O)C[C@H]2C)cc1 | 71 nM | 
41 | C[C@@H]1CC(=O)NN=C1c1ccc(N2CCOCC2)c(F)c1 | 1.58 nM | 
42 | CCN(CC)c1ccc(C2=NNC(=O)CC2C)cc1N (configuration not stated) | 232 nM (inactive) | 

Row | SMILES | IC50 [1] | outcome [2]
43 | C[C@@H]1CC(=O)NN=C1c1ccc(Cl)cc1 | 32.6 nM | 
44 | CC1(C)C(=O)NN=C1c1ccc(N2CCOCC2)cc1 | > 1000 nM (inactive) | 
45 | O=C1CC(c2ccccc2)=NN1 | > 1000 nM (inactive) | 
46 | C[C@@H]1CC(=O)NN=C1c1ccc(-n2cnnc2)cc1 | > 1000 nM (inactive) | 
47 | CCN1N=C(c2ccc(N(CC)CC)cc2)[C@H](C)CC1=O | > 1000 nM (inactive) | 
48 | CC1CC(=O)NN=C1c1ccc(F)c(F)c1 (configuration not stated) | 64.1 nM | 
49 | C[C@@H]1CC(=O)NN=C1c1ccc(N2CCCCC2=O)cc1 | > 1000 nM (inactive) | 
50 | CC(=O)Nc1ccc(C2=NNC(=O)C[C@H]2C)cc1Br | 21.4 nM | 
51 | CC(=O)Nc1ccc(C2=NNC(=O)C[C@H]2C)cc1N | > 1000 nM (inactive) | 
52 | C[C@@H]1CC(=O)NN=C1c1ccc(-c2cncnc2)cc1 | 12.6 nM | 
53 | CC1CC(=O)N(c2ccccc2)N=C1c1ccc(Cl)cc1 (configuration not stated) | > 1000 nM (inactive) | 
54 | CC(=O)Nc1ccc(C2=NNC(=O)CC2C)cc1 (configuration not stated) | > 1000 nM (inactive) | 
55 | CCN(CC)c1ccc(-c2nc(C(C)C)no2)cc1[N+](=O)[O-] |  | inactive
56 | C[C@@H]1CC(=O)NN=C1c1ccc([Si](C)(C)C)cc1 | 179 nM (inactive) | 
57 | O=C1C[C@H]2CCc3cc(N4CCOCC4)ccc3C2=NN1 (racemic) | > 1000 nM (inactive) | 
58 | CC1CC(=O)NN=C1c1cccs1 (configuration not stated) | > 1000 nM (inactive) | 
59 | Cc1cc(=O)[nH]nc1-c1ccc(N)cc1 | > 1000 nM (inactive) | 
60 | CC1(C)C(=O)NN=C1c1ccc(N)cc1 | > 1000 nM (inactive) | 
61 | CCN(CC)c1ccc(C2=NNC(=O)CC2C)cc1NCCOCCOCCNC(=O)OC(C)(C)C (configuration not stated) | > 1000 nM (inactive) | 
62 | CCN(CC)c1ccc(C2=NNC(=O)C[C@H]2C)cc1 | 3.71 nM | 
